Structures can show the parent of a compound that is named as a salt. Where two headings read alike, the source gives them in different places.
What was measured:
[1] = Microsomal stability, rat liver microsomes; type: in vitro ADME; conditions: male, SD, pH 7.4; rat liver microsomes (r), 0.5 mg/mL, NADPH regenerating system; read-out: MS (microsomal stability) t1/2
Experimental: (§1) A 2.5 mM stock solution of test compound in DMSO is diluted to 25 uM with 100 mM potassium phosphate buffer (pH 7.4) containing 5 mM EDTA. This solution was mixed with reaction mixtures (final concentration 1 μM). The incubation mixtures (final volume 700 μL) of test compound with liver microsomes [Xenotech; rat (male SD), human (mixed gender)] consisted of liver microsomes (0.5 mg/mL), substrate (Compound 4, […]), NADPH regenerating system (1.3 mM NADP+, 3.3 mM Glucose-6-phosphate, 3.3 mM MgCl2, 0.4 U/ml Glucose-6-phosphate dehydrogenase) in 81.3 mM potassium phosphate buffer (pH 7.4) containing 1 mM EDTA in duplicates. The reaction was initiated by addition of the NADPH regenerating system after preincubation at 37° C. for 10 min with test compounds. 100 uL of aliquot of the sample was removed at 0, 5, 10, 20, 30 and 60 min. The reaction was stopped by addition of 200 uL of acetonitrile containing internal standard (0.3 uM of Dextromethorphan). Each sample was mixed and centrifuged at 14000 rpm for 10 min. The resulting supernatant was analyzed by the LC-MS/MS method for determination of loss of parent compound. % parent remaining was calculated at 6 point time testing was done for T½ determination.

[2] = Microsomal stability, human liver microsomes; type: in vitro ADME; conditions: both sexes, pH 7.4; human liver microsomes (h), 0.5 mg/mL, NADPH regenerating system; read-out: MS (microsomal stability) t1/2
Experimental: as §1

human ATX = human ATX (Homo sapiens (Human), UniProt Q13822); assay: Bis-pNPP assay; type: biochemical; conditions: bis-pNPP substrate, read-out: Enzymatic assay (IC50) bis-pNPP
Experimental: Eight-fold dilution of each test compound solution (10 μM, 100% dimethyl sulfoxide) is carried out on 96-well V bottom plate (Costar 3363). After […] of each test compound solution (100% dimethyl sulfoxide) with deionized distilled water, 10 μL of the diluted each test compound solution (10% dimethyl sulfoxide) was aliquoted to a black flat bottom 96-well plate (Costar 3915). 50 μL of 60 mM Tris-HCl (pH9.0) buffer was added thereto, and subsequently 20 μL of 3.75 nM human ATX solution (buffer solution: 50 mM Tris-HCl (pH8.5), 5 mM CaCl2, 2.5 mM MgCl2, 0.01% Brij35) and 20 μL of 25 mM Bis-pNPP (bis(p-Nitrophenyl)-phosphate sodium salt) solution (buffer solution: 50 mM Tris-HCl (pH9.0)) were added thereto, respectively, followed by mixing. […] Furthermore, IC50 values that are shown in Table 3 were calculated using Grafit5 Software based on the inhibitory activity percentage ratio.

human ENPP2 = human ENPP2 (Homo sapiens (Human), UniProt Q13822); assay: Inhibitory activity on human ENPP2 (FS-3 assay); type: biochemical
Experimental: Two-fold dilution of each test compound solution (10 μM, 100% dimethyl sulfoxide) is carried out on 96-well V bottom plate (Costar 3363). After ten-fold dilution of each the test compound solution (100% dimethyl sulfoxide) with deionized distilled water, 10 μL of the diluted each mpound solution (10% dimethyl sulfoxide) was aliquoted to a black flat bottom 96-well plate (Costar 3915).

[3] = FS-3 assay, same process as Test example 1, read-out: Enzymatic assay (IC50) FS-3

Structure (SMILES)	half-life at 1 µM [1]	half-life at 1 µM [2]	IC50 (human ATX)	IC50 (human ENPP2; [3])	IC50 (human ENPP2)
O=C(Cn1cc(-c2cnc(NC3Cc4ccccc4C3)nc2)c(NC2CCC2)n1)N1CCc2[nH]nnc2C1 [Compound 100, 2-[3-(cyclobutylamino)-4-{2-[(2,3-dihydro-1H-inden-2-yl)amino]pyrimidin-5-yl}-1H-pyrazol-1-yl]-1-{1H,4H,5H,6H,7H-[1,2,3]triazolo[4,5-c]pyridin-5-yl}ethan-1-one]	10.3 ± 0.72 min	16.4 min	3.6 nM	1.74 nM	–
CCN(CC)c1nn(CC(=O)N2CCc3[nH]nnc3C2)cc1-c1cnc(NC2Cc3ccccc3C2)nc1 [Compound 106, 2-[3-(diethylamino)-4-{2-[(2,3-dihydro-1H-inden-2-yl)amino]pyrimidin-5-yl}-1H-pyrazol-1-yl]-1-{1H,4H,5H,6H,7H-[1,2,3]triazolo[4,5-c]pyridin-5-yl}ethan-1-one]	3.9 ± 0.03 min	4.2 min	2.27 nM	2.57 nM	–
O=C(O)c1ccc(-c2nn(CC(=O)N3CCc4[nH]nnc4C3)cc2-c2cnc(NC3Cc4ccccc4C3)nc2)cc1 [Compound 119, 4-(4-{2-[(2,3-dihydro-1H-inden-2-yl)amino]pyrimidin-5-yl}-1-(2-oxo-2-{1H,4H,5H,6H,7H-[1,2,3]triazolo[4,5-c]pyridin-5-yl}ethyl)-1H-pyrazol-3-yl)benzoic Acid]	–	–	9.19 nM	< 1.56 nM	–
NNC(=O)C1=CCN(C(=O)Cc2nnc(-c3cnc(NC4Cc5ccccc5C4)nc3)o2)CC1 [Compound 120, 1-[2-(5-{2-[(2,3-dihydro-1H-inden-2-yl)amino]pyrimidin-5-yl}-1,3,4-oxadiazol-2-yl)acetyl]-1,2,3,6-tetrahydropyridine-4-carbohydrazide Hydrochloride]	–	–	380 nM	–	25.9 nM

Continued, in another order:

half-life at 1 µM [1]	half-life at 1 µM [2]	IC50 (human ATX)	IC50 (human ENPP2; [3])	Structure (SMILES)	IC50 (human ENPP2)
> 60 min	> 60 min	< 1.56 nM	9.39 nM	O=C(Cn1cc(-c2cnc(NC3Cc4ccccc4C3)nc2)c(C2CCNCC2)n1)N1CCc2[nH]nnc2C1 [Compound 98, 2-(4-{2-[(2,3-dihydro-1H-inden-2-yl)amino]pyrimidin-5-yl}-3-(piperidin-4-yl)-1H-pyrazol-1-yl)-1-{1H,4H,5H,6H,7H-[1,2,3]triazolo[4,5-c]pyridin-5-yl}ethan-1-one]	–
–	–	5.3 nM	< 1.56 nM	O=C(CO)N1CCC(c2nn(CC(=O)N3CCc4[nH]nnc4C3)cc2-c2cnc(NC3Cc4ccccc4C3)nc2)CC1 [Compound 118, 1-[4-(4-{2-[(2,3-dihydro-1H-inden-2-yl)amino]pyrimidin-5-yl}-1-(2-oxo-2-{1H,4H,5H,6H,7H-[1,2,3]triazolo[4,5-c]pyridin-5-yl}ethyl)-1H-pyrazol-3-yl)piperidin-1-yl]-2-hydroxyethan-1-one]	–

From patent publication US10961242B2, “Compounds as autotaxin inhibitors and pharmaceutical compositions comprising the same” (LegoChem Biosciences, Inc., priority 2018, dated 2021)
